Experimental data reported in US7632807B2, “Cyclosporin alkynes and their utility as pharmaceutical agents” (Albany Molecular Research, Inc., priority 2004, dated 2009).
≈ marks a conversion by molar mass, not a printed value. Entries after “also recorded” stand apart in the source; their conditions may differ.

Columns and labels:
[1] = system: concanavalin A-stimulated murine splenocytes; test: Concanavalin A (ConA)-stimulated murine splenocyte assay; assay type: cell-based, mouse (BALB/c)
Description: Concanavalin A—Stimulated Splenocyte Assay
Male BALB/c mice, at 5 to 7 weeks of age, were sacrificed by CO2 inhalation. Spleens were removed and dissociated by pushing through a nylon cell strainer. The splenocytes were washed in RPMI 1640/5% fetal calf serum (FCS) and pelleted at 400×g. Red blood cells were then lysed by resuspending the cell pellet in ACK lysis buffer (150 mM NH4Cl, 1 mM KHCO3, 0.1 mM EDTA, 3 mL per spleen) for 10 min at room temperature. After pelleting at 400×g, the cells were washed by resuspending in RPMI 1640/5% FCS and repelleting. The cell pellet was resuspended in RPMI 1640/5% FCS and again passed through a cell strainer to remove cell aggregates. The cells were then counted and adjusted to 2×10^6 cells/ml in RPMI 1640/10% FCS/[…] 2-mercaptoethanol. Cell viability was assessed by Trypan blue staining. […] The cells were cultured in a 37° C. CO2 incubator for 2 days and then pulsed with 1 μCi of [^3H]thymidine for 6 hours. Cells were harvested onto filtermats with a TomTec 96 well plate harvester and lysed with H2O. The filtermat and scintillation fluid were sealed in a plastic sleeve. [^3H]thymidine incorporation was measured with a Wallac Trilux plate counter. Initial screens were done at a fixed value of 100 ng/ml test compound. IC50s were calculated from 7 point concentration-response curves using graphPad software.

[2] = literature value (Rich et al. 1990); cited from earlier work

Compound | immunosuppressive potency compared to cyclosporin A ([1]; FIG. 1, ConA-stimulated murine splenocyte assay) | IC50 ([1]; novel cyclosporin alkyne analogue, ConA-stimulated BALB/c splenocytes, [3H]thymidine incorporation, 7 point concentration-response curves) | relative immunosuppressive activity, compared to cyclosporin A [2]
C#CC#CC[C@@H](C)[C@@H](O)[C@H]1C(=O)N[C@@H](CC)C(=O)N(C)CC(=O)N(C)[C@@H](CC(C)C)C(=O)N[C@@H](C(C)C)C(=O)N(C)[C@@H](CC(C)C)C(=O)N[C@@H](C)C(=O)N[C@H](C)C(=O)N(C)[C@@H](CC(C)C)C(=O)N(C)[C@@H](CC(C)C)C(=O)N(C)[C@@H](C(C)C)C(=O)N1C [Example 25, cyclosporine diyne] | enhanced or similar potency in immunosuppression; also recorded: two times more potent over cyclosporin A | 12 ng/mL (≈ 9.91 nM) | –
CC#CC[C@@H](C)[C@@H](O)[C@H]1C(=O)N[C@@H](CC)C(=O)N(C)CC(=O)N(C)[C@@H](CC(C)C)C(=O)N[C@@H](C(C)C)C(=O)N(C)[C@@H](CC(C)C)C(=O)N[C@@H](C)C(=O)N[C@H](C)C(=O)N(C)[C@@H](CC(C)C)C(=O)N(C)[C@@H](CC(C)C)C(=O)N(C)[C@@H](C(C)C)C(=O)N1C [known cyclosporin alkyne] | – | – | 10%
